In ChEMBL document CHEMBL6153102, “Rational Design, Synthesis, and Biological Evaluation of Novel c-Met Degraders for Lung Cancer Therapy” (J Med Chem, 2025):
The source made the active and inactive calls. The calls are words filed in the database; no cut-off is given here.

Columns and labels:
[1] = biological target: T1, Protein cereblon/Hepatocyte growth factor receptor (Homo sapiens, UniProt P08581+Q96SW2); assay: PROTAC activity at c-Met/CRBN in human EBC-1 cells assessed as induction of c-Met degradation at 100 nM incubated for 24 hrs by Western blotting analysis relative to control; assay type: cell-based
T1 sequence (P08581 25-1390 limits assumed): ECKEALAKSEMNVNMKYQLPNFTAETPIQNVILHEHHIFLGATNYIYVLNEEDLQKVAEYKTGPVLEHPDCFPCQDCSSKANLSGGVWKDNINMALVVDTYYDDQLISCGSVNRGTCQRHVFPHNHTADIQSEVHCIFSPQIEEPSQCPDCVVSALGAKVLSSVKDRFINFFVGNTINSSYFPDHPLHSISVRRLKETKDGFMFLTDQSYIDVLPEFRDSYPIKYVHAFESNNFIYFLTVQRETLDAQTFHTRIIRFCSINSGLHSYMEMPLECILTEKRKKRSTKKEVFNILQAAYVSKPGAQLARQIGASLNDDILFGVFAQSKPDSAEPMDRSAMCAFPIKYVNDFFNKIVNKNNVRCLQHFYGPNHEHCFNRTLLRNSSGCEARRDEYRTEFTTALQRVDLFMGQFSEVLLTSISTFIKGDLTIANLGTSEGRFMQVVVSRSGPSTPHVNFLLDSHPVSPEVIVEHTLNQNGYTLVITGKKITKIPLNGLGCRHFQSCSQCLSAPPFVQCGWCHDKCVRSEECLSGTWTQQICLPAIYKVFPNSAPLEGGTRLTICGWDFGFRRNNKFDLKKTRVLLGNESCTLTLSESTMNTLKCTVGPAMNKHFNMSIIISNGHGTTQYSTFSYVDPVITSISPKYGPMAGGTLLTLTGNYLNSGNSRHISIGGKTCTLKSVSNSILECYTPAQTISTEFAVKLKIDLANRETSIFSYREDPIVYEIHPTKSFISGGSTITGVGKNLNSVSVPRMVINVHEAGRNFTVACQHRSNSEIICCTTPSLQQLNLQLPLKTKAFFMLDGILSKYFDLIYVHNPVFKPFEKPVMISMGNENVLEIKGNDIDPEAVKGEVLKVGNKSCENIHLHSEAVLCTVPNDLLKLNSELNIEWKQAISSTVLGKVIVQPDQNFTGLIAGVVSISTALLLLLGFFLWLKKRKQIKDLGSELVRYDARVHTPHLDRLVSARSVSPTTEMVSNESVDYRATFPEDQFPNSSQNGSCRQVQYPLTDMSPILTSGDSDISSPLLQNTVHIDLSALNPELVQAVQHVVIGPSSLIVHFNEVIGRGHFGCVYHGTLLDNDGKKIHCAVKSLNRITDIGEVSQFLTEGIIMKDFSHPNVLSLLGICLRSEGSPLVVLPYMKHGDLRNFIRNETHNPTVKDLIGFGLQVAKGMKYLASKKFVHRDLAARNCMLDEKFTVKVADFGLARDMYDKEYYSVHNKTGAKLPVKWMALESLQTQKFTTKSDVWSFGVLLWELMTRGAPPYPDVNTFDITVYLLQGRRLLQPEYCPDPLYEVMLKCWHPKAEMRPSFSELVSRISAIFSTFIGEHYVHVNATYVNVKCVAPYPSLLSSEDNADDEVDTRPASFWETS
T1 sequence (Q96SW2 whole entry partner): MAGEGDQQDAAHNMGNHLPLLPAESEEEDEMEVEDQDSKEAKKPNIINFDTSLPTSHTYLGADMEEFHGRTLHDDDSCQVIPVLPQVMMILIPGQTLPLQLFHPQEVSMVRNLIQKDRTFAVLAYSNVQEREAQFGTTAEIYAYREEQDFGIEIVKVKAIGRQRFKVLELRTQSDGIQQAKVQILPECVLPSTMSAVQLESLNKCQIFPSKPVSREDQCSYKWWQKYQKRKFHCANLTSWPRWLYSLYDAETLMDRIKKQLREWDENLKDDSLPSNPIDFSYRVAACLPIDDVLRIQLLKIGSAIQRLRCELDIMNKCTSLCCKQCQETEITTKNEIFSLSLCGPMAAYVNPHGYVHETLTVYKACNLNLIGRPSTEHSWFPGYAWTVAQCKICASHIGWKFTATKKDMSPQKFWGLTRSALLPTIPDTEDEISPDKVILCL

[2] = biological target: T1, Protein cereblon/Hepatocyte growth factor receptor; assay: PROTAC activity at c-Met/CRBN in human HCT-116 cells assessed as induction of c-Met degradation at 100 nM incubated for 24 hrs by Western blotting analysis relative to control; assay type: cell-based
[3] = biological target: T1, Protein cereblon/Hepatocyte growth factor receptor; assay: PROTAC activity at c-Met/CRBN in human A549 cells assessed as induction of c-Met degradation at 100 nM incubated for 24 hrs by Western blotting analysis relative to control; assay type: cell-based
A549 = assay: Antiproliferative activity against human A549 cells assessed as cell viability incubated for 72 hrs by MTT assay; assay type: functional, cell-based; conditions: A549, 72 h
MKN-45 = assay: Antiproliferative activity against human MKN-45 cells assessed as cell viability incubated for 72 hrs by MTT assay; assay type: functional, cell-based; conditions: MKN-45, 72 h
HCT-116 = assay: Antiproliferative activity against human HCT-116 cells assessed as cell viability incubated for 72 hrs by MTT assay; assay type: functional, cell-based; conditions: HCT-116, 72 h
EBC-1 [4] = assay: Antitumor activity against human EBC-1 cells xenografted BALB/c nude mouse assessed as reduction in tumor volume at 20 mg/kg, ip administered for 7 days; assay type: functional; parameters: scale not given: the % may be the effect or the level left; conditions: time 7 day
EBC-1 [5] = assay: Antiproliferative activity against human EBC-1 cells assessed as cell viability incubated for 72 hrs by MTT assay; assay type: functional, cell-based; conditions: EBC-1, 72 h
Hs746T = assay: Antiproliferative activity against human Hs746T cells assessed as cell viability incubated for 72 hrs by MTT assay; assay type: functional, cell-based

| Compound | Activity [1] | Activity [2] | Activity [3] | also measured |
| --- | --- | --- | --- | --- |
| N#Cc1cccc(-c2ccc(=O)n(Cc3cccc(-c4ncc(OCC5CCN(C(=O)CCCCNC(=O)CC67C[C@H]8C[C@@H](C6)C[C@@H](C7)C8)CC5)cn4)c3)n2)c1 | 2.8% | inactive | inactive |  |
| N#Cc1cccc(-c2ccc(=O)n(Cc3cccc(-c4ncc(OCC5CCN(C(=O)C6CC7C=CC6C7)CC5)cn4)c3)n2)c1 (stereo not given) | 22.4% | inactive | inactive |  |
| CC(C)Cc1ccc([C@H](C)C(=O)N2CCC(COc3cnc(-c4cccc(Cn5nc(-c6cccc(C#N)c6)ccc5=O)c4)nc3)CC2)cc1 | 23.3% | inactive | inactive |  |
| COc1ccc(C(=O)N2CC3CN(C(=O)CN4CCC(COc5cnc(-c6cccc(Cn7nc(-c8cccc(C#N)c8)ccc7=O)c6)nc5)CC4)CC3C2)cc1N1CCC(=O)NC1=O (stereo not given) | inactive | inactive | inactive |  |
| N#Cc1cccc(-c2ccc(=O)n(Cc3cccc(-c4ncc(OCC5CCN(C(=O)C6c7ccccc7-c7ccccc76)CC5)cn4)c3)n2)c1 | 13.4% | inactive | inactive |  |
| COc1ccc(C(=O)N2CC3CC(CN(C(=O)CN4CCC(COc5cnc(-c6cccc(Cn7nc(-c8cccc(C#N)c8)ccc7=O)c6)nc5)CC4)C3)C2)cc1N1CCC(=O)NC1=O | inactive | inactive | inactive |  |
| CC(C)Cc1ccc([C@H](C)C(=O)NCCCCC(=O)N2CCC(COc3cnc(-c4cccc(Cn5nc(-c6cccc(C#N)c6)ccc5=O)c4)nc3)CC2)cc1 | inactive | inactive | inactive |  |
| COc1ccc(C(=O)N2CCC3(CCN(C(=O)CCN4CCC(COc5cnc(-c6cccc(Cn7nc(-c8cccc(C#N)c8)ccc7=O)c6)nc5)CC4)CC3)CC2)cc1N1CCC(=O)NC1=O | 85.6% | inactive | inactive |  |
| COc1ccc(C(=O)NCCCCCCN2CCC(COc3cnc(-c4cccc(Cn5nc(-c6cccc(C#N)c6)ccc5=O)c4)nc3)CC2)cc1N1CCC(=O)NC1=O | inactive | inactive | inactive |  |
| N#Cc1cccc(-c2ccc(=O)n(Cc3cccc(-c4ncc(OCC5CCN(C(=O)CCCCNC(=O)C(C6CCCCC6)C6CCCCC6)CC5)cn4)c3)n2)c1 | 0.9% | inactive | inactive |  |
| COc1ccc(C(=O)N2CCN(C(=O)CN3CCC(COc4cnc(-c5cccc(Cn6nc(-c7cccc(C#N)c7)ccc6=O)c5)nc4)CC3)CC2)cc1N1CCC(=O)NC1=O | inactive | inactive | inactive |  |
| N#Cc1cccc(-c2ccc(=O)n(Cc3cccc(-c4ncc(OCC5CCN(C(=O)C(C6CCCCC6)C6CCCCC6)CC5)cn4)c3)n2)c1 | inactive | inactive | inactive |  |
| COc1ccc(C(=O)N2CCC3(CC2)CN(C(=O)CN2CCC(COc4cnc(-c5cccc(Cn6nc(-c7cccc(C#N)c7)ccc6=O)c5)nc4)CC2)C3)cc1N1CCC(=O)NC1=O | 37.7% | inactive | inactive |  |
| COc1ccc(C(=O)N2CCC3(CCN(C(=O)CCCCN4CCC(COc5cnc(-c6cccc(Cn7nc(-c8cccc(C#N)c8)ccc7=O)c6)nc5)CC4)CC3)CC2)cc1N1CCC(=O)NC1=O | 83.7% | inactive | inactive |  |
| COc1ccc(C(=O)N2CCC3(CCN(C(=O)CN4CCC(COc5cnc(-c6cccc(Cn7nc(-c8cccc(C#N)c8)ccc7=O)c6)nc5)CC4)C3)CC2)cc1N1CCC(=O)NC1=O | 74.6% | inactive | inactive |  |
| COc1ccc(C(=O)N2CCC3(CCN(C(=O)CCCCCN4CCC(COc5cnc(-c6cccc(Cn7nc(-c8cccc(C#N)c8)ccc7=O)c6)nc5)CC4)CC3)CC2)cc1N1CCC(=O)NC1=O | 79.1% | inactive | inactive |  |
| N#Cc1cccc(-c2ccc(=O)n(Cc3cccc(-c4ncc(OCC5CCN(C(=O)CCCCNC(=O)C6CC7C=CC6C7)CC5)cn4)c3)n2)c1 (stereo not given) | 12.4% | inactive | inactive |  |
| CN1CCC(COc2cnc(-c3cccc(Cn4nc(-c5cccc(C#N)c5)ccc4=O)c3)nc2)CC1 [TEPOTINIB] |  |  |  | IC50 (A549): 13500 nM; IC50 (MKN-45): 63 nM; IC50 (HCT-116): 4940 nM; Activity (EBC-1 [4]): 74.5%; IC50 (EBC-1 [5]): 12 nM; IC50 (Hs746T): 38 nM |
| N#Cc1cccc(-c2ccc(=O)n(Cc3cccc(-c4ncc(OCC5CCN(C(=O)C(c6ccccc6)c6ccccc6)CC5)cn4)c3)n2)c1 | 2.7% | inactive | inactive |  |
| COc1ccc(C(=O)N2CCC3(CCN(C(=O)CN4CCC(COc5cnc(-c6cccc(Cn7nc(-c8cccc(C#N)c8)ccc7=O)c6)nc5)CC4)C3)C2)cc1N1CCC(=O)NC1=O (stereo not given) | 54.1% | inactive | inactive |  |
| N#Cc1cccc(-c2ccc(=O)n(Cc3cccc(-c4ncc(OCC5CCN(C(=O)CCCCNC(=O)C(c6ccccc6)c6ccccc6)CC5)cn4)c3)n2)c1 | 4.4% | inactive | inactive |  |
| N#Cc1cccc(-c2ccc(=O)n(Cc3cccc(-c4ncc(OCC5CCN(C(=O)C[C@]67CC8CC(C[C@H](C8)C6)C7)CC5)cn4)c3)n2)c1 | 1.5% | inactive | inactive |  |
| N#Cc1cccc(-c2ccc(=O)n(Cc3cccc(-c4ncc(OCC5CCN(C(=O)CCCCNC(=O)C6c7ccccc7-c7ccccc76)CC5)cn4)c3)n2)c1 | 4.1% | inactive | inactive |  |
| COc1ccc(C(=O)NCCCCN2CCC(COc3cnc(-c4cccc(Cn5nc(-c6cccc(C#N)c6)ccc5=O)c4)nc3)CC2)cc1N1CCC(=O)NC1=O | inactive | inactive | inactive |  |
